Results reported in PubChem BioAssay AID2060342 (Molecular Pharmacology Branch, DTP, NCI, 2025).

Tested on: 171881-019-R-J1-PDC multicell spheroid viability
Assay: Anticancer human tumor 171881-019-R-J1-PDC patient-derived invasive breast carcinoma cell line growth inhibition [IpAb]
Settings: for IC50: curve of first compound; for viability, T/C: stronger effect = lower value
Text: Combinatorial screen of targeted agents with ipatasertib and abemaciclib in multi-cell type tumor spheroids
A high-throughput screen of multi-cell type tumor spheroids was designed to identify active combinations of targeted small molecules and ipatasertib or abemaciclib. Complex spheroids include a stromal component modeled by human endothelial cells (HUVEC) and fibroblasts modeled by human mesenchymal stem cells (MSCs). The concentration ranges selected for each drug and investigational agent were based upon clinically achievable concentrations if the clinical Cmax of the agent was known.
Compounds. The drugs and investigational agents: ipatasertib (NSC767898), abemaciclib(NSC768073), selumetinib (NSC741078), trametinib (758246), adavosertib (NSC754352), everolimus (NSC733504), sapanisertib (NSC764658), vemurafenib (NSC761431), venetoclax (NSC766270), copanlisib (NSC809693), apelisib (NSC765974), palbociblib (NSC758247), vemurafenib (NSC761431), dabrafenib (NSC764134), ravoxertinib (NSC781343), BMS-387032 (NSC767048), sotorasib (NSC818433), talazoparib (NSC767125) and afursertib (NSC778305), were obtained from the National Cancer Institute (NCI) Developmental Therapeutics Program Chemical Repository. The FDA-approved anticancer drug set is available from the NCI Developmental Therapeutics Program. […] The stock solutions were prepared in dimethyl sulfoxide (DMSO, Sigma-Aldrich, St. Louis, MO, cat. D2650) at 800-fold the tested concentration and stored at -70 degrees C prior to their use. All drugs and investigational agents were tested over a range starting from a high concentration at or near the clinical Cmax and decreasing in half-log increments. If the clinical Cmax for an agent had not been determined, the highest concentration tested was 10 microM.
NCI60 Cell Culture. NCI60 cell lines were obtained from the NCI Developmental Therapeutics Program Tumor Repository. For each lot of cells, the Repository performed Applied Biosystems AmpFLSTR Identifiler testing with PCR amplification to confirm consistency with the published Identifier STR profile for each cell line. Cells were kept in continuous culture for no more than 20 passages. The optimal seeding densities for each of the cell lines at each time point assessed were determined prior to performing the concentration response studies. Briefly, the NCI60 human tumor lines were grown as monolayers in RPMI 1640 medium supplemented with 10% FBS and 2 mmol/L L-glutamine.
An additional 9 lines were from the NCI60 cell line panel including MDA-MB-231 breast carcinoma, MDA-MB-468 breast carcinoma, MCF7 breast carcinoma, Hs578T breast carcinoma, MALME-3M melanoma, SK-MEL-2 melanoma, SK-OV-3 ovarian carcinoma, DU-145 prostate carcinoma, PC-3 prostate carcinoma, all cell lines along with major genetic alterations are listed on Table 2. Pooled donor human umbilical vein endothelial cells (HUVEC, Lonza, cat. CC-2519) and human mesenchymal stem cells (hMSC, Lonza, cat. PT-2501) were purchased from Lonza (Walkersville, MD).
PDMR cell lines were grown in complete medium (DC medium): Dulbecco's modified Eagle's medium (DMEM)/F12 supplemented with 5% fetal bovine serum (FBS), 2 mM L-glutamine, 100 U/mL penicillin and 100 µg/ml streptomycin, 0.4 µg/ml hydrocortisone, 10 ng/ml epidermal growth factor (EGF) recombinant human protein, 24 µg/mL adenine, and 0.1 mg/mL primocin. During culture from frozen stock vials, PDMR cells were cultured in the same medium containing 10 µM Y-27632 (see Table 3). The PDCs were cultured in complete DMEM/F12 media without 10 microM Y-27632 dihydrochloride for at least two passages prior to the screen. The pooled donor HUVEC and hMSC were cultured in endothelial cell growth medium 2 (PromoCell, Heidelberg, Germany, cat. C-22011) and mesenchymal stem cell growth medium 2 (PromoCell, cat. C-28009), respectively. For all experiments, HUVEC and hMSC were used at passages </=5.
[…]

[1] = second compound 0.1 µM, first compound 0.0316 µM
[2] = second compound 0.1 µM, first compound 0.1 µM
[3] = second compound 0.1 µM, first compound 0.316 µM
[4] = second compound 0.1 µM, first compound 1 µM
[5] = second compound 0.316 µM, first compound 0.0316 µM
[6] = second compound 0.316 µM, first compound 0.1 µM
[7] = second compound 0.316 µM, first compound 0.316 µM
[8] = second compound 0.316 µM, first compound 1 µM
[9] = second compound 1 µM, first compound 0.0316 µM
[10] = second compound 1 µM, first compound 0.1 µM
[11] = second compound 1 µM, first compound 0.316 µM
[12] = second compound 1 µM, first compound 1 µM
[13] = second compound 3.16 µM, first compound 0.0316 µM
[14] = second compound 3.16 µM, first compound 0.1 µM
[15] = second compound 3.16 µM, first compound 0.316 µM
[16] = second compound 3.16 µM, first compound 1 µM
[17] = second compound 10 µM, first compound 0.0316 µM
[18] = second compound 10 µM, first compound 0.1 µM
[19] = second compound 10 µM, first compound 0.316 µM
[20] = second compound 10 µM, first compound 1 µM
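Also: spheroids exposed to the agents for seven days before readout.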

SMILES	IC50 (second compound 0.1 µM) [nM]	IC50 (second compound 0.316 µM) [nM]	IC50 (second compound 1 µM) [nM]	IC50 (second compound 3.16 µM) [nM]	IC50 (second compound 10 µM) [nM]	viability, T/C [1] [%]	viability, T/C [2] [%]	viability, T/C [3] [%]	viability, T/C [4] [%]	viability, T/C [5] [%]	viability, T/C [6] [%]	viability, T/C [7] [%]	viability, T/C [8] [%]	viability, T/C [9] [%]	viability, T/C [10] [%]	viability, T/C [11] [%]	viability, T/C [12] [%]	viability, T/C [13] [%]	viability, T/C [14] [%]	viability, T/C [15] [%]	other results
COc1c(OCCCN2CCOCC2)ccc2c3n(c(=NC(=O)c4cnc(N)nc4)nc12)CCN3 + CC(C)NCC(C(=O)N1CCN(c2ncnc3c2C(C)CC3O)CC1)c1ccc(Cl)cc1	16.4	5.9	< 3.16	< 3.16	< 3.16	25.8	3.96	1.09	1.15	16.9	3.36	0.91	0.95	8.13	2.24	0.79	1.24	3.83	1.68	0.83	viability, T/C (second compound 0.1 µM, first compound 0.00316 µM): 94.5%; viability, T/C (second compound 0.1 µM, first compound 0.01 µM): 68.5%; viability, T/C (second compound 0.316 µM, first compound 0.00316 µM): 61.5%; viability, T/C (second compound 0.316 µM, first compound 0.01 µM): 40%; viability, T/C (second compound 1 µM, first compound 0.00316 µM): 25.2%; viability, T/C (second compound 1 µM, first compound 0.01 µM): 15.6%; viability, T/C (second compound 3.16 µM, first compound 0.00316 µM): 9.51%; viability, T/C (second compound 3.16 µM, first compound 0.01 µM): 6.39%; viability, T/C [16]: 0.67%; viability, T/C (second compound 10 µM, first compound 0.00316 µM): 5.07%; viability, T/C (second compound 10 µM, first compound 0.01 µM): 3.81%; viability, T/C [17]: 2.45%; viability, T/C [18]: 1.59%; viability, T/C [19]: 0.62%; viability, T/C [20]: 0.82%
Cc1nc(NC(=O)N2CCCC2C(N)=O)sc1-c1ccnc(C(C)(C)C(F)(F)F)c1 (stereo not given) + CC(C)NCC(C(=O)N1CCN(c2ncnc3c2C(C)CC3O)CC1)c1ccc(Cl)cc1	651	294	< 31.6	< 31.6	< 31.6	125	108	68.4	38.1	71.5	58.9	52.8	18.8	24.8	24.1	21.3	13.5	10.7	7.22	7.33	viability, T/C (second compound 0.1 µM, first compound 3.16 µM): 15.5%; viability, T/C (second compound 0.1 µM, first compound 10 µM): 1.41%; viability, T/C (second compound 0.316 µM, first compound 3.16 µM): 10.7%; viability, T/C (second compound 0.316 µM, first compound 10 µM): 1.29%; viability, T/C (second compound 1 µM, first compound 3.16 µM): 4.39%; viability, T/C (second compound 1 µM, first compound 10 µM): 0.88%; viability, T/C [16]: 5.54%; viability, T/C (second compound 3.16 µM, first compound 3.16 µM): 3.24%; viability, T/C (second compound 3.16 µM, first compound 10 µM): 0.74%; viability, T/C [17]: 5.48%; viability, T/C [18]: 4.17%; viability, T/C [19]: 4.3%; viability, T/C [20]: 2.72%; viability, T/C (second compound 10 µM, first compound 3.16 µM): 1.77%; viability, T/C (second compound 10 µM, first compound 10 µM): 0.6%
